Laboratory results published in US6355799B1, “Substituted benzene compounds, process for their preparation, and herbicidal and defoliant compositions containing them” (ISK Americas Incorporated, priority 1997, dated 2002).

Legend:
Assay type in all cases: in vivo
[1] = tested on: field corn (Zea mays L., var. Dekalb 535, CORN); assay: Post-emerge test, crop safety; details: post-emerge; for Post-emerge Herbicidal Activity CORN (crop damage rating): 14 days after application, rating scale 0-100; for Post-emerge Herbicidal Activity CORN: crop damage rating 0-100 at 14 days after application
How it was run: (§1)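 Applied at 15–1000 g ai/ha from acetone in 187 l/ha spray volume. Post-emergence applications included 0.25% v/v non-ionic surfactant and reached plants sown 8–21 days before. Pre-emergence applications were incorporated by surface watering. Efficacy or crop damage was rated on a 0–100 scale after 14 days.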

[2] = tested on: upland rice (Oryza sp., var. Tebonnet, RICE); assay: Post-emerge test, crop safety; details: post-emerge; for Post-emerge Herbicidal Activity RICE (crop damage rating): 14 days after application, rating scale 0-100; for Post-emerge Herbicidal Activity RICE: crop damage rating 0-100 at 14 days after application
How it was run: as §1

[3] = tested on: redroot pigweed (Amaranthus retroflexus, AMARE); assay: Post-emerge test, greenhouse herbicide activity screening; details: post-emerge; for Post-emerge Herbicidal Activity AMARE (phytotoxicity rating): 14 days after application; for Post-emerge Herbicidal Activity AMARE: phytotoxicity rating 0-100 at 14 days after application
How it was run: (§2)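 Compounds in acetone were track-sprayed at 15-1000 g ai/ha (187 l/ha) on sandy loam pots: pre-emerge one day after seeding, post-emerge at 2-3 leaf stage with 0.25% v/v non-ionic surfactant. Phytotoxicity was rated 14 days later on a 0 (no damage) to 100 (complete death) scale.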

[4] = tested on: lambsquarters (Chenopodium album, CHEAL); assay: as above; details: post-emerge; for Post-emerge Herbicidal Activity CHEAL (phytotoxicity rating): 14 days after application, rating scale 0-100; for Post-emerge Herbicidal Activity CHEAL: phytotoxicity rating 0-100 at 14 days after application
How it was run: as §2

[5] = tested on: johnsongrass (Sorghum halepense, SORHA); assay: as above; details: post-emerge; for Post-emerge Herbicidal Activity SORHA (phytotoxicity rating): 14 days after application, rating scale 0-100; for Post-emerge Herbicidal Activity SORHA: phytotoxicity rating 0-100 at 14 days after application
How it was run: as §2

[6] = tested on: velvetleaf (Abutilon theophrasti, ABUTH); assay: as above; details: post-emerge; for Post-emerge Herbicidal Activity ABUTH (phytotoxicity rating): 14 days after application, rating scale 0-100; for Post-emerge Herbicidal Activity ABUTH: phytotoxicity rating 0-100 at 14 days after application
How it was run: as §2

[7] = tested on: green foxtail (Setaria viridis, SETVI); assay: as above; details: post-emerge; for Post-emerge Herbicidal Activity SETVI (phytotoxicity rating): 14 days after application, rating scale 0-100; for Post-emerge Herbicidal Activity SETVI: phytotoxicity rating 0-100 at 14 days after application
How it was run: as §2

[8] = tested on: sicklepod (Cassia obtusifolia, CASOB); assay: as above; details: post-emerge; for Post-emerge Herbicidal Activity CASOB (phytotoxicity rating): 14 days after application, rating scale 0-100; for Post-emerge Herbicidal Activity CASOB: phytotoxicity rating 0-100 at 14 days after application
How it was run: as §2

[9] = tested on: ivyleaf morningglory (Ipomoea hederacea, IPOHE); assay: as above; details: post-emerge; for Post-emerge Herbicidal Activity IPOHE (phytotoxicity rating): 14 days after application, rating scale 0-100; for Post-emerge Herbicidal Activity IPOHE: phytotoxicity rating 0-100 at 14 days after application
How it was run: as §2

[10] = tested on: large crabgrass (Digitaria sanguinalis, DIGSA); assay: as above; details: post-emerge; for Post-emerge Herbicidal Activity DIGSA (phytotoxicity rating): 14 days after application, rating scale 0-100; for Post-emerge Herbicidal Activity DIGSA: phytotoxicity rating 0-100 at 14 days after application
How it was run: as §2

[11] = tested on: barnyardgrass (Echinochloa crus-galli, ECHCG); assay: as above; details: post-emerge; for Post-emerge Herbicidal Activity ECHCG (phytotoxicity rating): 14 days after application, rating scale 0-100; for Post-emerge Herbicidal Activity ECHCG: phytotoxicity rating 0-100 at 14 days after application
How it was run: as §2

[12] = 63 g ai/ha, rating scale 0-100 (0 no damage, 100 complete death)
[13] = 250 g ai/ha, rating scale 0-100

Cn1c(C(F)(F)F)cc(=O)n(-c2c(O)cc(Cl)cc2Cl)c1=O [16-1]
Post-emerge Herbicidal Activity CORN (crop damage rating) ([1]; 63 g ai/ha): 0
Post-emerge Herbicidal Activity CORN (crop damage rating) ([1]; 250 g ai/ha): 0
Post-emerge Herbicidal Activity RICE (crop damage rating) ([2]; 63 g ai/ha): 0
Post-emerge Herbicidal Activity RICE (crop damage rating) ([2]; 250 g ai/ha): 10
Post-emerge Herbicidal Activity AMARE (phytotoxicity rating) [3, 12]: 70
Post-emerge Herbicidal Activity AMARE (phytotoxicity rating) [3, 13]: 70
Post-emerge Herbicidal Activity CHEAL (phytotoxicity rating) ([4]; 63 g ai/ha): 0
Post-emerge Herbicidal Activity CHEAL (phytotoxicity rating) ([4]; 250 g ai/ha): 70
Post-emerge Herbicidal Activity SORHA (phytotoxicity rating) ([5]; 63 g ai/ha): 20
Post-emerge Herbicidal Activity SORHA (phytotoxicity rating) ([5]; 250 g ai/ha): 40
Post-emerge Herbicidal Activity ABUTH (phytotoxicity rating) ([6]; 63 g ai/ha): 70
Post-emerge Herbicidal Activity ABUTH (phytotoxicity rating) ([6]; 250 g ai/ha): 100
Post-emerge Herbicidal Activity SETVI (phytotoxicity rating) ([7]; 63 g ai/ha): 0
Post-emerge Herbicidal Activity SETVI (phytotoxicity rating) ([7]; 250 g ai/ha): 0
Post-emerge Herbicidal Activity CASOB (phytotoxicity rating) ([8]; 63 g ai/ha): 0
Post-emerge Herbicidal Activity CASOB (phytotoxicity rating) ([8]; 250 g ai/ha): 0
Post-emerge Herbicidal Activity IPOHE (phytotoxicity rating) ([9]; 63 g ai/ha): 30
Post-emerge Herbicidal Activity IPOHE (phytotoxicity rating) ([9]; 250 g ai/ha): 70
Post-emerge Herbicidal Activity DIGSA (phytotoxicity rating) ([10]; 63 g ai/ha): 20
Post-emerge Herbicidal Activity DIGSA (phytotoxicity rating) ([10]; 250 g ai/ha): 80
Post-emerge Herbicidal Activity ECHCG (phytotoxicity rating) ([11]; 63 g ai/ha): 0
Post-emerge Herbicidal Activity ECHCG (phytotoxicity rating) ([11]; 250 g ai/ha): 0

COc1c(Cl)cc(F)c(-n2c(=O)n3n(c2=O)CCCC3)c1NC(=O)c1ccc2ccccc2c1 [9-15]
Post-emerge Herbicidal Activity CORN ([1]; 63 g ai/ha): 5
Post-emerge Herbicidal Activity CORN ([1]; 250 g ai/ha): 10
Post-emerge Herbicidal Activity RICE ([2]; 63 g ai/ha): 40
Post-emerge Herbicidal Activity RICE ([2]; 250 g ai/ha): 70
Post-emerge Herbicidal Activity AMARE ([3]; 63 g ai/ha): 100
Post-emerge Herbicidal Activity AMARE ([3]; 250 g ai/ha): 100
Post-emerge Herbicidal Activity CHEAL ([4]; 63 g ai/ha): 100
Post-emerge Herbicidal Activity CHEAL ([4]; 250 g ai/ha): 100
Post-emerge Herbicidal Activity SORHA ([5]; 63 g ai/ha): 0
Post-emerge Herbicidal Activity SORHA ([5]; 250 g ai/ha): 10
Post-emerge Herbicidal Activity ABUTH ([6]; 63 g ai/ha): 100
Post-emerge Herbicidal Activity ABUTH ([6]; 250 g ai/ha): 100
Post-emerge Herbicidal Activity SETVI ([7]; 63 g ai/ha): 10
Post-emerge Herbicidal Activity SETVI ([7]; 250 g ai/ha): 35
Post-emerge Herbicidal Activity CASOB ([8]; 63 g ai/ha): 100
Post-emerge Herbicidal Activity CASOB ([8]; 250 g ai/ha): 100
Post-emerge Herbicidal Activity IPOHE ([9]; 63 g ai/ha): 100
Post-emerge Herbicidal Activity IPOHE ([9]; 250 g ai/ha): 100
Post-emerge Herbicidal Activity DIGSA ([10]; 63 g ai/ha): 0
Post-emerge Herbicidal Activity DIGSA ([10]; 250 g ai/ha): 20
Post-emerge Herbicidal Activity ECHCG ([11]; 63 g ai/ha): 0
Post-emerge Herbicidal Activity ECHCG ([11]; 250 g ai/ha): 10

Cn1c(C(F)(F)F)cc(=O)n(-c2c(Cl)cc(Cl)cc2OC(=O)c2ccc(F)cc2F)c1=O [16-4]
Post-emerge Herbicidal Activity CORN (crop damage rating) ([1]; 63 g ai/ha): 0
Post-emerge Herbicidal Activity CORN (crop damage rating) ([1]; 250 g ai/ha): 0
Post-emerge Herbicidal Activity RICE (crop damage rating) ([2]; 63 g ai/ha): 0
Post-emerge Herbicidal Activity RICE (crop damage rating) ([2]; 250 g ai/ha): 0
Post-emerge Herbicidal Activity AMARE (phytotoxicity rating) [3, 12]: 0
Post-emerge Herbicidal Activity AMARE (phytotoxicity rating) [3, 13]: 0
Post-emerge Herbicidal Activity CHEAL (phytotoxicity rating) ([4]; 63 g ai/ha): 0
Post-emerge Herbicidal Activity CHEAL (phytotoxicity rating) ([4]; 250 g ai/ha): 0
Post-emerge Herbicidal Activity SORHA (phytotoxicity rating) ([5]; 63 g ai/ha): 0
Post-emerge Herbicidal Activity SORHA (phytotoxicity rating) ([5]; 250 g ai/ha): 0
Post-emerge Herbicidal Activity ABUTH (phytotoxicity rating) ([6]; 63 g ai/ha): 0
Post-emerge Herbicidal Activity ABUTH (phytotoxicity rating) ([6]; 250 g ai/ha): 0
Post-emerge Herbicidal Activity SETVI (phytotoxicity rating) ([7]; 63 g ai/ha): 0
Post-emerge Herbicidal Activity SETVI (phytotoxicity rating) ([7]; 250 g ai/ha): 0
Post-emerge Herbicidal Activity CASOB (phytotoxicity rating) ([8]; 63 g ai/ha): 0
Post-emerge Herbicidal Activity CASOB (phytotoxicity rating) ([8]; 250 g ai/ha): 0
Post-emerge Herbicidal Activity IPOHE (phytotoxicity rating) ([9]; 63 g ai/ha): 0
Post-emerge Herbicidal Activity IPOHE (phytotoxicity rating) ([9]; 250 g ai/ha): 0
Post-emerge Herbicidal Activity DIGSA (phytotoxicity rating) ([10]; 63 g ai/ha): 0
Post-emerge Herbicidal Activity DIGSA (phytotoxicity rating) ([10]; 250 g ai/ha): 0
Post-emerge Herbicidal Activity ECHCG (phytotoxicity rating) ([11]; 63 g ai/ha): 0
Post-emerge Herbicidal Activity ECHCG (phytotoxicity rating) ([11]; 250 g ai/ha): 0
